According to patent US11021521B2, “Pore-modified gram-negative bacteria and uses thereof” (priority 2015, dated 2021):
Values after ≈ are worked out from the molar mass of the structure shown. Values joined by “and” are separate entries in the source; they are usually repeats but may differ in a detail not shown here. Identical values can stand only once. Like-named read-outs stand apart in the source and are kept apart here.

Experiments:
[1] = test system: P. aeruginosa PAO1-LAC (wild type, empty cassette); assay: microbe, parasite or virus in culture; assay type: cell-based; details: at least three independent measurements
[2] = test system: P. aeruginosa PAO1-LAC-EcPore (hyperporinated); assay: microbe, parasite or virus in culture; assay type: cell-based; details: for MIC: PAO1-LAC-EcPore, at least three independent measurements
[3] = test system: P. aeruginosa PaΔ3-LAC (efflux-deficient); assay: microbe, parasite or virus in culture; assay type: cell-based; details: at least three independent measurements
[4] = test system: P. aeruginosa PaΔ3-LAC-EcPore (efflux-deficient, hyperporinated); assay: microbe, parasite or virus in culture; assay type: cell-based
[5] = test system: B. thailandensis Bt-RHA (wild type, empty cassette); assay: microbe, parasite or virus in culture; assay type: cell-based
[6] = test system: B. thailandensis Bt-RHA-BtPore (hyperporinated); assay: microbe, parasite or virus in culture; assay type: cell-based
[7] = test system: B. thailandensis BtΔ2-RHA (efflux-deficient); assay: microbe, parasite or virus in culture; assay type: cell-based
[8] = test system: B. cepacia Bc-RHA-BtPore (hyperporinated); assay: microbe, parasite or virus in culture; assay type: cell-based; details: for MIC: Bc-RHA-BtPore
[9] = test system: A. baumannii Ab-ARA (wild type, empty cassette); assay: microbe, parasite or virus in culture; assay type: cell-based; details: at least three independent measurements
[10] = test system: A. baumannii Ab-ARA-EcPore (hyperporinated); assay: microbe, parasite or virus in culture; assay type: cell-based; details: for MIC: Ab-ARA-EcPore, at least three independent measurements
[11] = test system: A. baumannii AbΔ3-ARA (efflux-deficient); assay: microbe, parasite or virus in culture; assay type: cell-based; details: for MIC: AbΔ3-ARA, at least three independent measurements
[12] = test system: A. baumannii AbΔ3-ARA-EcPore (efflux-deficient, hyperporinated); assay: microbe, parasite or virus in culture; assay type: cell-based; details: for MIC: AbΔ3-ARA-EcPore; for Fold change of MIC by efflux inactivation plus hyperporination: AbΔ3-ARA-EcPore vs Ab-ARA
[13] = test system: B. thailandensis cells (Bt-RHA and derivatives)
[14] = test system: A. baumannii cells (Ab-ARA and derivatives); assay: Fluorescent probe uptake assay, A. baumannii strains; details: AbΔ3-ARA vs Ab-ARA, fluorescence
[15] = test system: P. aeruginosa cells (PAO1-LAC and derivatives); assay: Fluorescent probe uptake assay, P. aeruginosa strains
[16] = test system: B. thailandensis BtΔ2-RHA-BtPore (efflux-deficient, hyperporinated); assay: microbe, parasite or virus in culture; assay type: cell-based
[17] = test system: B. cepacia Bc-RHA (wild type, empty cassette); assay: microbe, parasite or virus in culture; assay type: cell-based
[18] = PaΔ3-LAC-EcPore, at least three independent measurements
[19] = at least three independent measurements
[20] = Pseudomonas aeruginosa, read-out: MIC
[21] = Pseudomonas aeruginosa, PaΔ3-LAC-EcPore, at least three independent measurements, read-out: MIC
[22] = Burkholderia cepacia, read-out: MIC
[23] = Acinetobacter baumannii, read-out: MIC
[24] = Acinetobacter baumannii, at least three independent measurements, read-out: MIC

| Molecule | MIC [1] | MIC [2] | MIC [3] | MIC [4, 18] | MIC [5] | MIC [6] | MIC [7] | MIC [9] | MIC [10] | MIC [11] | MIC [12, 19] | MIC [16] | MIC [17] | MIC [8] | also measured |
| --- | --- | --- | --- | --- | --- | --- | --- | --- | --- | --- | --- | --- | --- | --- | --- |
| CCOc1ccc(-c2nc3ccc(-c4nc5ccc(N6CCN(C)CC6)cc5[nH]4)cc3[nH]2)cc1 [HT, Hoechst 33342] | >64 µg/mL | 64 µg/mL (≈ 141 µM) | 16 µg/mL (≈ 35.4 µM) | 2 µg/mL | >64 µM | >64 µM | 1 µM | 25 µg/mL (≈ 55.2 µM) | 3.125 µg/mL (≈ 6.91 µM) | 0.78 µg/mL (≈ 1.72 µM) | 0.025 µg/mL |  |  |  | Fold decrease of MIC (potentiation) by hyperporination ([2]; Pae: PAO1-LAC-EcPore vs parent): 4 to 8 fold; MIC ([4]; PΔ3-LAC-EcPore): 2.0 µM; Fold decrease of MIC (potentiation) by hyperporination ([8]; Bc: Bc-RHA-BtPore vs parent): > 4 fold; Fold decrease of MIC (potentiation) by hyperporination ([10]; Abau: Ab-ARA-EcPore vs parent): 4 to 8 fold and 8 fold; Fold reduction of MIC by inactivation of efflux ([11]; Abau: AbΔ3-ARA vs Ab-ARA): 32 fold; MIC [12]: 0.025 to 0.05 µM; Fold change of MIC by efflux inactivation plus hyperporination [12]: 1000 fold; Change of intracellular accumulation of probe by inactivation of efflux [13]: up to 2 fold; Change of intracellular accumulation of probe by inactivation of efflux [14]: up to 2 fold; Change of intracellular accumulation of probe by inactivation of efflux ([15]; PΔ3-LAC vs PAO1-LAC, fluorescence): lower than those in the parent PAO1-LAC |
| c1ccc(Nc2cccc3ccccc23)cc1 [NPN, N-phenyl-1-naphthylamine] |  |  |  |  |  |  |  |  |  |  |  |  |  |  | Change of intracellular accumulation of probe by inactivation of efflux [13]: higher levels of NPN accumulation than in hyperporinated cells; Change of intracellular accumulation of probe by inactivation of efflux [14]: higher levels of NPN accumulation than in hyperporinated cells; Probe levels in efflux-deficient hyperporinated cells vs parent ([15]; PΔ3-LAC-EcPore vs PAO1-LAC): only slightly higher than in PAO1-LAC cells |
| Oc1cc(Cl)ccc1Oc1ccc(Cl)cc1Cl [Triclosan] |  |  |  |  |  |  |  |  |  |  |  |  |  |  | MIC [1, 20]: 1020 µg/mL (≈ 3540 µM); MIC [2, 20]: 1020 µg/mL (≈ 3540 µM); MIC [3, 20]: 32 µg/mL (≈ 111 µM); MIC [4, 21]: 8 µg/mL; MIC ([5]; Burkholderia thailandensis): 120 µg/mL; MIC ([6]; Burkholderia thailandensis): 30 µg/mL; MIC ([7]; Burkholderia thailandensis): 0.12 µg/mL; MIC ([16]; Burkholderia thailandensis): 0.06 µg/mL (≈ 0.207 µM); MIC [17, 22]: > 120 µg/mL; MIC [8, 22]: 60 µg/mL (≈ 207 µM); MIC [9, 23]: 0.125 µg/mL (≈ 0.432 µM); MIC [10, 23]: 0.063 µg/mL (≈ 0.218 µM); MIC [11, 23]: 0.002 µg/mL (≈ 0.00691 µM); MIC [12, 24]: 0.001 µg/mL |
| CN[C@H](CC(C)C)C(=O)N[C@H]1C(=O)N[C@@H](CC(N)=O)C(=O)N[C@H]2C(=O)N[C@H]3C(=O)N[C@H](C(=O)N[C@H](C(=O)O)c4cc(O)cc(O)c4-c4cc3ccc4O)[C@H](O)c3ccc(c(Cl)c3)Oc3cc2cc(c3O[C@@H]2O[C@H](CO)[C@@H](O)[C@H](O)[C@H]2O[C@H]2C[C@](C)(N)[C@H](O)[C@H](C)O2)Oc2ccc(cc2Cl)[C@H]1O [Vancomycin] |  |  |  |  |  | 256 to 512 µg/mL |  |  |  |  |  |  |  |  | MIC [1, 20]: 1020 µg/mL (≈ 707 µM); MIC [2, 20]: 128 µg/mL (≈ 88.3 µM); MIC [3, 20]: 1020 µg/mL (≈ 707 µM); MIC [4, 21]: 64 µg/mL; MIC ([5]; Burkholderia thailandensis): > 1020 µg/mL; MIC ([7]; Burkholderia thailandensis): > 1020 µg/mL; MIC ([16]; Burkholderia thailandensis): 4 to 8 µg/mL (≈ 2.76 to 5.52 µM); MIC [17, 22]: > 1020 µg/mL; MIC [8, 22]: 8 µg/mL (≈ 5.52 µM); MIC [9, 23]: 1020 µg/mL (≈ 707 µM); MIC [10, 23]: 128 µg/mL (≈ 88.3 µM); MIC [11, 23]: 1020 µg/mL (≈ 707 µM); MIC [12, 24]: 128 µg/mL |
| Cc1c(N)nc([C@H](CC(N)=O)NC[C@H](N)C(N)=O)nc1C(=O)N[C@H](C(=O)N[C@H](C)[C@@H](O)[C@H](C)C(=O)N[C@H](C(=O)NCCC1=N[C@@H](c2nc(C(=O)NCCCCN=C(N)N)cs2)CS1)[C@@H](C)O)[C@@H](O[C@@H]1O[C@@H](CO)[C@@H](O)[C@H](O)[C@@H]1O[C@H]1O[C@H](CO)[C@@H](O)[C@H](OC(N)=O)[C@@H]1O)c1cnc[nH]1 [Zeocin] | 512 µg/mL (≈ 359 µM) | 32 to 64 µg/mL | 16 µg/mL (≈ 11.2 µM) | 2 µg/mL | 512 µg/mL | 128 µg/mL | 2 µg/mL | 8 µg/mL (≈ 5.6 µM) | 0.5 µg/mL (≈ 0.35 µM) | 1 µg/mL (≈ 0.701 µM) | 0.125 µg/mL | 0.12 µg/mL (≈ 0.0841 µM) | >1024 µg/mL | 128 µg/mL (≈ 89.7 µM) | Fold change of MIC by efflux inactivation plus hyperporination ([4]; PaeΔ3-LAC-Pore vs parent): 256 fold; Fold change of MIC by efflux inactivation plus hyperporination [16]: 4096 fold; Fold change of MIC by efflux inactivation plus hyperporination [12]: 64 fold |
| Polymyxin B | 1.5 µg/mL | 1.5 µg/mL | 1.5 µg/mL | 1.5 µg/mL | >1024 µg/mL | >1024 µg/mL | >1024 µg/mL | 0.25 µg/mL | 0.25 µg/mL | 0.125 µg/mL | 0.125 µg/mL | 128 µg/mL | >1024 µg/mL | 512 µg/mL |  |
| Tobramycin [Tobramycin + Mg^2+] | 2 µg/mL | 1 µg/mL | 0.5 µg/mL | 0.5 µg/mL | 64 µg/mL | 64 µg/mL | 1 µg/mL | 4 µg/mL | 2 µg/mL | 4 µg/mL | 2 µg/mL | 1 µg/mL | 32 to 64 µg/mL | 4 µg/mL |  |
